Data taken from patent US9200260B2, “Compositions and methods for the transfer of a hexosamine to a modified nucleotide in a nucleic acid” (New England Biolabs, Inc., priority 2012, dated 2015).

Legend:
[1] = biological target: T1, wild-type BGT (T4-β-glucosyltransferase) (Enterobacteria phage T4, UniProt P04547); assay: Enzymatic transfer of UDP-sugars to BGT DNA by wild-type BGT (protection from MfeI cleavage, agarose gel); format: biochemical; conditions: for UDP-Sugar concentration required for complete protection of BGT DNA from MfeI cleavage: enzyme BGT, 100 ng, 0.25 μg BGT DNA, 37° C. 1 h, >> incomplete protection at highest tested concentration, n.a. no activity
T1 construct: purchased New England Biolabs, Inc. (Ipswich, Mass.)
T1 sequence (P04547 1-351): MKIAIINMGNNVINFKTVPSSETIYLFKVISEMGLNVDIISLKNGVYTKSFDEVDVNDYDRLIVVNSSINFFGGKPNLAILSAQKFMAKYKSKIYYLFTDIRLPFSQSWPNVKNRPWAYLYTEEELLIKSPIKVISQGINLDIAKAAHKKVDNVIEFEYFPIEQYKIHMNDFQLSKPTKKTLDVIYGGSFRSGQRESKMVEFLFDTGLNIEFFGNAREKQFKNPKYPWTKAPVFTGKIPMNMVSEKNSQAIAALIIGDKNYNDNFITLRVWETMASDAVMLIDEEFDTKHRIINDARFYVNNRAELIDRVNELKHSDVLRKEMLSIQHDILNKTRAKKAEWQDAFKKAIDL
Description: (§1) After glycosylation, the glucosyltransferase was heat-inactivated by incubating for 10 minutes at 70° C. To analyze the enzyme-catalyzed transfer efficiency, samples were incubated with 1 μL (20 units) MfeI for 1 hour at 37° C. Reaction products were separated by agarose gel electrophoresis and stained with ethidium bromide to check for complete protection of BGT DNA against MfeI cleavage. […]
(§2) BGT DNA contains 5-hmC instead of cytosine and was produced from phage deficient in α- and β-glucosyltransferases. The degree of glycosylation of BGT DNA was determined by incubating the samples with the restriction endonuclease MfeI.
(§3) Top row: wild-type BGT; middle row: BGT/Y261L; bottom row: wild-type AGT. […] Then the glucosyltransferase was killed by heat at 70° C., and 1 μL (20 units) MfeI was added and incubated at 37° C. for 1 hour. The results were analyzed by agarose gel electrophoresis. Concentration values are given in mM.
(§4) Top row: wild-type BGT; middle row: BGT/Y261L; bottom row: wild-type AGT. […] Various concentrations of each substrate (as indicated) were incubated with 0.25 μg BGT DNA in the presence of 100 ng glucosyltransferase at 37° C. for 1 hour. Then the glucosyltransferase was killed by heat at 70° C. for 10 minutes, and 1 μL (20 units) MfeI was added and incubated at 37° C. for 1 hour. The results were analyzed by agarose gel electrophoresis. Concentration values are given in mM.

wild-type BGT [2] = biological target: T2, wild-type BGT (Enterobacteria phage T4, UniProt P04547); conditions: cited from earlier work
BGT/Y261L [3] = biological target: T3, BGT/Y261L (Enterobacteria phage T4, UniProt P04547, Y261L); format: biochemical; set-up: purchased New England Biolabs, Inc. (Ipswich, Mass.); conditions: for transfer efficiency by BGT/Y261L (in words): compared with natural UDP-Glc; for UDP-Sugar concentration required for complete protection of BGT DNA from MfeI cleavage: enzyme BGT/Y261L, 100 ng, 0.25 μg BGT DNA, 37° C. 1 h, >> incomplete protection at highest tested concentration, n.a. no activity
T3 sequence (P04547 whole entry Y261L): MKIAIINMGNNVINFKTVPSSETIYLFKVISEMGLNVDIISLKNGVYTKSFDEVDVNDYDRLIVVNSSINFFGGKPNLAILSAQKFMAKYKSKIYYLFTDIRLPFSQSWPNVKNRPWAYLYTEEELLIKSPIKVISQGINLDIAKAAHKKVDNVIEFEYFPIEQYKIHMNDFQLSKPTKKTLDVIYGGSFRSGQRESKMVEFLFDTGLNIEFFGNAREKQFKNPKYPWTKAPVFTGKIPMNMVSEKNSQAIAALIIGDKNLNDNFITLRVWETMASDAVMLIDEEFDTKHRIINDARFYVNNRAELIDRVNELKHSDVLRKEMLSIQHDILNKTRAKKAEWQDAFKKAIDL
Description: as §1, §2, §3, §4

[4] = biological target: T4, wild-type AGT (T4 phage α-glucosyltransferase) (Enterobacteria phage T4, UniProt P04519); assay: Enzymatic transfer of UDP-sugars to BGT DNA by wild-type AGT (protection from MfeI cleavage, agarose gel); format: biochemical; conditions: for UDP-Sugar concentration required for complete protection of BGT DNA from MfeI cleavage: enzyme AGT, 100 ng, 0.25 μg BGT DNA, 37° C. 1 h, >> incomplete protection at highest tested concentration, n.a. no activity
T4 construct: purchased New England Biolabs, Inc. (Ipswich, Mass.)
T4 sequence (P04519 whole entry): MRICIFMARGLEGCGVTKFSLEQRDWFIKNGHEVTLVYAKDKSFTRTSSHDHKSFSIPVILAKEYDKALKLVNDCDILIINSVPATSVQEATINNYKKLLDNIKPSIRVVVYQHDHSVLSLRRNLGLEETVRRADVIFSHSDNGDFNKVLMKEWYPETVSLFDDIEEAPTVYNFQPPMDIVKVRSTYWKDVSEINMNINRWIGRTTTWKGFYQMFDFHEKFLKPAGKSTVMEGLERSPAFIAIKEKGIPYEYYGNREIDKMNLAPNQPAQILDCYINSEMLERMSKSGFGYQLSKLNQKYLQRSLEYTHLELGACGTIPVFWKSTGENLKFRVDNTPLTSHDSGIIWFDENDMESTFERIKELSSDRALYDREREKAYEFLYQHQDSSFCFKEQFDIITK
Description: After glycosylation, the glucosyltransferase was heat-inactivated by incubating for 10 minutes at 70° C. To analyze the enzyme-catalyzed transfer efficiency, samples were incubated with 1 μL (20 units) MfeI for 1 hour at 37° C. Reaction products were separated by agarose gel electrophoresis and stained with ethidium bromide to check for complete protection of BGT DNA against MfeI cleavage.
Nucleic Acids Res., 13, 7551-7568; Szwagierczak, A., Bultmann, S., Schmidt, C. […] Nucleic Acids Res., 38, e181].
as §2, §3, §4

BGT/Y261L [5] = biological target: T3, BGT/Y261L; conditions: 0.02 to 10.0 mM in the presence of 40 μM UDP-Glc; UDP-Glc 0.02 to 20.0 mM in the presence of 5 mM compound
Description: (§5) After adding 100 ng of wild-type BGT or BGT/Y261L, the reaction mixtures were incubated at 37° C. for 1 hour in 1× NEBuffer 4. After glycosylation, the glucosyltransferase was heat-inactivated by incubating for 10 minutes at 70° C. […] Reaction products were separated by electrophoresis on agarose gel and stained with ethidium bromide.
(§6) Concentration values are given in mM.

wild-type BGT [6] = biological target: T2, wild-type BGT; conditions: 0.02 to 10.0 mM in the presence of 40 μM UDP-Glc; UDP-Glc 0.02 to 20.0 mM in the presence of 5 mM compound
Description: as §5, §6

AGT = AGT (Enterobacteria phage T4, UniProt P04519)
AGT, sequence (P04519 whole entry): as above

[N-]=[N+]=NCC1OC(OP(=O)(O)OP(=O)(O)OC[C@H]2O[C@@H](n3ccc(=O)[nH]c3=O)[C@H](O)[C@@H]2O)C(O)C(O)C1O (stereo partly shown) [Compound 1, UDP-6-Azido-Glc, reference compound]
UDP-Sugar concentration required for complete protection of BGT DNA from MfeI cleavage [1]: 0.04 mM | decrease in the reaction rate compared to the native UDP-Glc cofactor (wild-type BGT [2]): ~6 fold | transfer efficiency by BGT/Y261L (in words) (BGT/Y261L [3]): cannot efficiently transfer | UDP-Sugar concentration required for complete protection of BGT DNA from MfeI cleavage (BGT/Y261L [3]): >>1.0 mM

[N-]=[N+]=NC1C(OP(=O)(O)OP(=O)(O)OCC2OC(n3ccc(=O)[nH]c3=O)C(O)C2O)OC(CO)C(O)C1O (stereo not shown) [Compound 2, UDP-2-Azido-Glc]
transfer efficiency by wild-type BGT (in words) ([1]; compared with natural UDP-Glc): None of the three tested enzymes efficiently transferred | transfer efficiency by wild-type AGT (in words) [4]: None of the three tested enzymes efficiently transferred | inhibition of BGT/Y261L (mode, in words) (BGT/Y261L [5]): competitive inhibitor | inhibition of wild-type BGT (mode, in words) (wild-type BGT [6]): competitive inhibitor | inhibition of AGT (in words) (AGT): not for AGT | transfer efficiency by BGT/Y261L (in words) (BGT/Y261L [3]): None of the three tested enzymes efficiently transferred

NCC1OC(OP(=O)(O)OP(=O)(O)OC[C@H]2O[C@@H](n3ccc(=O)[nH]c3=O)[C@H](O)[C@@H]2O)C(O)C(O)C1O (stereo partly shown) [Compound 3, UDP-6-glucosamine]
UDP-Sugar concentration required for complete protection of BGT DNA from MfeI cleavage [1]: 0.02 mM | UDP-Sugar concentration required for complete protection of BGT DNA from MfeI cleavage [4]: >>5.0 mM | UDP-Sugar concentration required for complete protection of BGT DNA from MfeI cleavage (BGT/Y261L [3]): 0.31 mM | transfer efficiency by BGT/Y261L, lower than natural UDP-Glc (BGT/Y261L [3]; relative to natural UDP-Glc): about 15 fold

N[C@H]1[C@@H](OP(=O)(O)OP(=O)(O)OC[C@H]2O[C@@H](n3ccc(=O)[nH]c3=O)[C@H](O)[C@@H]2O)O[C@H](CO)[C@@H](O)[C@@H]1O [Compound 4, UDP-2-glucosamine]
UDP-Sugar concentration required for complete protection of BGT DNA from MfeI cleavage [1]: 0.03 mM | UDP-Sugar concentration required for complete protection of BGT DNA from MfeI cleavage [4]: >>1.25 mM | UDP-Sugar concentration required for complete protection of BGT DNA from MfeI cleavage (BGT/Y261L [3]): 0.03 mM

CC(=O)N[C@H]1[C@@H](OP(=O)(O)OP(=O)(O)OC[C@H]2O[C@@H](n3ccc(=O)[nH]c3=O)[C@H](O)[C@@H]2O)O[C@H](CO)[C@@H](O)[C@@H]1O [UDP-GlcNAc, UDP-N-acetyl-D-glucosamine, reference compound]
UDP-Sugar concentration required for complete protection of BGT DNA from MfeI cleavage [1]: 25 mM | UDP-Sugar concentration required for complete protection of BGT DNA from MfeI cleavage [4]: >>20.0 mM | transfer by BGT/Y261L more efficient than by wild-type BGT (BGT/Y261L [3]; BGT/Y261L versus wild-type BGT): 10 fold | UDP-Sugar concentration required for complete protection of BGT DNA from MfeI cleavage (BGT/Y261L [3]): 2.5 mM | transfer efficiency by the Y261L enzyme, lower compared to UDP-2-GlcN 4 (BGT/Y261L [3]; relative to UDP-2-GlcN 4): approximately 100 fold

O=C(O)[C@H]1O[C@H](OP(=O)(O)OP(=O)(O)OC[C@H]2O[C@@H](n3ccc(=O)[nH]c3=O)[C@H](O)[C@@H]2O)[C@H](O)[C@@H](O)[C@@H]1O [UDP-GlcUA, UDP-Glucuronic acid, reference compound]
UDP-Sugar concentration required for complete protection of BGT DNA from MfeI cleavage [1]: 1.0 mM | UDP-Sugar concentration required for complete protection of BGT DNA from MfeI cleavage [4]: >>20.0 mM | UDP-Sugar concentration required for complete protection of BGT DNA from MfeI cleavage (BGT/Y261L [3]): >>10.0 mM

UDP-2-Keto-Glc [Compound 5]
UDP-Sugar concentration required for complete protection of BGT DNA from MfeI cleavage [1]: >>4.0 mM | transfer by BGT/Y261L at the highest tested concentration (BGT/Y261L [3]; 4 mM): not detected | UDP-Sugar concentration required for complete protection of BGT DNA from MfeI cleavage (BGT/Y261L [3]): >>4.0 mM
